Patent US20140296479A1, “D-APTIDE AND RETRO-INVERSO APTIDE WITH MAINTAINED TARGET AFFINITY AND IMPROVED STABILITY” (GWANGJU INSTITUTE OF SCIENCE AND TECHNOLOGY, priority 2011, published 2014)
Each block holds one molecule with its values, some of them ahead of it. Where a SMILES comes first, the peptide text is derived from it. Where no end group is shown, it is not given here. [ ]: non-standard residue; d: D form.

Assays:
[1] = target: T1, VEGF (Homo sapiens, UniProt P15692); experiment: Inhibition of VEGF activity (HUVEC proliferation assay); format: cell-based; conditions: VEGF165, 72 hours
T1 construct: purchased R&D Systems
T1 sequence (P15692 27-191 isoform P15692-4): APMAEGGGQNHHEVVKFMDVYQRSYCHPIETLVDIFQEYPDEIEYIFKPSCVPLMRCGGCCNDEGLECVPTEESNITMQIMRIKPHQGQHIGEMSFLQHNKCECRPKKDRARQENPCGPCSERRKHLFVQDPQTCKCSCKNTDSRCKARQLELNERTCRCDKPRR
Description: HUVECs (Human Umbilical Vein Endothelial Cells, ATCC) were starved in M199 medium (Gibco) supplemented with 1% FBS, and then they were attached to a 96-well plate at 5000 cell/well. After 12 hours, the cells were treated with medium containing both various concentrations of L-Aptide1VEGF and D-Aptide1VEGF, and VEGF165 (R&D Systems). After 72 hours, the growth inhibition rate of HUVECs by the L-AptideVEGF and D-AptideVEGF was determined using EZ-cytox cell viability assay kit (Daeil Labservice, Korea).

[2] = target: T2, VEGF121 (Homo sapiens, UniProt P15692); experiment: BIAcore X (SPR) affinity for VEGF; format: binding; conditions: VEGF121 on CM5 chip; for kd: PBS pH 7.4; for kon: PBS pH 7.4, read-out: ka
T2 sequence (P15692 27-147 isoform P15692-9): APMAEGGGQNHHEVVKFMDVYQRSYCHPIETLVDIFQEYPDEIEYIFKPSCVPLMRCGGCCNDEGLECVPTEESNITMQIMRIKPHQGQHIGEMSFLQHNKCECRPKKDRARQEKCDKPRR
Description: To investigate whether the activity is maintained where Aptamer-Like Peptides specifically binding to VEGF (Vascular endothelial growth factor), i.e., L-Aptide1VEGF are converted into D- and Retro inverso (RI)-form, their affinity to a target was measured. Firstly, 3 peptides, L-Aptide1VEGF ([…], all L-amino acids, SEQ ID NO:23), D-Aptide1VEGF ([…], all D-amino acids, SEQ ID NO:23) and RI-Aptide1VEGF ([…], all D-amino acids), were synthesized by Anigen Inc. (Korea). Their affinity for a target was determined using BIAcore X (Biacore AB, Uppsala, Sweden). VEGF121 of 3000 RU was immobilized on CM5 chip (Biacore). A PBS (pH 7.4) was used as a running buffer, a flow rate was 30 μl/min, and the affinity was determined with BIAevaluation software (Biacore AB, Uppsala, Sweden) after measuring kinetics of various concentrations.

[3] = target: T3, fibronectin EDB (UniProt P02751 1266-1356, limits assumed, biotin (site not stated)); experiment: SPR, BIAcore X; biotin-EDB on SA chip, peptide as analyte
T3 construct: domain: EDB; Biotin-EDB, 2000 RU, immobilised on a streptavidin SA chip; also called Biotin-EDB; fibronectin extra domain B (ED-B)
Description: To investigate whether the activity is maintained where Aptamer-Like Peptides specifically binding to fibronectin EDB, i.e., L-Aptide1EDB are converted into D- and Retro inverso (RI)-form, their affinity to a target was measured. Firstly, 3 peptides, L-Aptide1EDB ([…], all L-amino acids, SEQ ID NO:21), D-Aptide1EDB ([…], all D-amino acids, SEQ ID NO:21) and RI-Aptide1EDB ([…], all D-amino acids), were synthesized by Anigen Inc. (Korea). Their affinity for a target was determined using BIAcore X (Biacore AB, Uppsala, Sweden). Biotin-EDB of 2000 RU was immobilized on streptavidin SA chip (Biacore).

T3 sequence (P02751 1266-1356 limits assumed): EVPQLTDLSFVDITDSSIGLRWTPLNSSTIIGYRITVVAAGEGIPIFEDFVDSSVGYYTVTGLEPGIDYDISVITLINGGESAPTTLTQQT

Molecule: C[C@H](O)[C@@H](NC(=O)[C@@H](Cc1c[nH]c2ccccc12)NC(=O)[C@@H](CCCCN)NC(=O)CNC(=O)[C@@H](CC(N)=O)NC(=O)[C@@H](CCC(=O)O)NC(=O)[C@@H](Cc1c[nH]c2ccccc12)NC(=O)[C@H](NC(=O)[C@@H](Cc1c[nH]c2ccccc12)NC(=O)[C@@H](CO)NC(=O)CNC(=O)[C@@H](CCC(N)=O)NC(=O)[C@@H](Cc1ccccc1)NC(=O)[C@@H](Cc1ccccc1)NC(=O)[C@@H](CC(N)=O)NC(=O)[C@@H](C)NC(=O)[C@H](N)Cc1c[nH]cn1)[C@H](C)O)C(=O)N[C@H](Cc1c[nH]c2ccccc12)C(=O)N[C@H](CCCCN)C(=O)NCC(=O)N[C@H](Cc1c[nH]c2ccccc12)C(=O)N[C@H](CCCCN)C(=O)N[C@H](Cc1ccc(O)cc1)C(=O)N[C@H](CC(N)=O)C(=O)N[C@H](CCC(N)=O)C(=O)N[C@H](CO)C(=O)O [D-Aptide1VEGF] (H-[dH][dA][dN][dF][dF][dQ]G[dS][dW][dT][dW][dE][dN]G[dK][dW][dT][dW][dK]G[dW][dK][dY][dN][dQ][dS]-OH; N-terminus and C-terminus assumed)
inhibition of VEGF activity ([1]; at 10 μM, D-form versus L-form): more inhibited VEGF activity than L-form
inhibition of VEGF activity ([1]; at 20 μM): completely inhibited VEGF activity
kd [2]: 0.0066 s⁻¹
Kd ([2]; PBS pH 7.4, read-out: Kd): 0.05 µM
kon [2]: 130000 M⁻¹ s⁻¹

Molecule: C[C@H](NC(=O)[C@@H](N)Cc1c[nH]cn1)C(=O)N[C@@H](CC(N)=O)C(=O)N[C@@H](Cc1ccccc1)C(=O)N[C@@H](Cc1ccccc1)C(=O)N[C@@H](CCC(N)=O)C(=O)NCC(=O)N[C@@H](CO)C(=O)N[C@@H](Cc1c[nH]c2ccccc12)C(=O)N[C@H](C(=O)N[C@@H](Cc1c[nH]c2ccccc12)C(=O)N[C@@H](CCC(=O)O)C(=O)N[C@@H](CC(N)=O)C(=O)NCC(=O)N[C@@H](CCCCN)C(=O)N[C@@H](Cc1c[nH]c2ccccc12)C(=O)N[C@H](C(=O)N[C@@H](Cc1c[nH]c2ccccc12)C(=O)N[C@@H](CCCCN)C(=O)NCC(=O)N[C@@H](Cc1c[nH]c2ccccc12)C(=O)N[C@@H](CCCCN)C(=O)N[C@@H](Cc1ccc(O)cc1)C(=O)N[C@@H](CC(N)=O)C(=O)N[C@@H](CCC(N)=O)C(=O)N[C@@H](CO)C(=O)O)[C@@H](C)O)[C@@H](C)O [L-Aptide1VEGF] (H-HANFFQGSWTWENGKWTWKGWKYNQS-OH; N-terminus and C-terminus assumed)
inhibition of VEGF activity ([1]; at 20 μM): completely inhibited VEGF activity
kd [2]: 0.01 s⁻¹
kon [2]: 350000 M⁻¹ s⁻¹

koff [3]: 0.0009 s⁻¹
Molecule: [dH][dC][dS][dS][dA][dV]G[dS][dW][dT][dW][dE][dN]G[dK][dW][dT][dW][dK]G[dI][dI][dR][dL][dE][dQ] (designed binder) [D-Aptide1EDB]

koff [3]: 0.0011 s⁻¹
Molecule: [dQ][dE][dL][dR][dI][dI]G[dK][dW][dT][dW][dK]G[dN][dE][dW][dT][dW][dS]G[dV][dA][dS][dS][dC][dH] (designed binder) [RI-Aptide1EDB]

koff [3]: 0.00095 s⁻¹
B1: L-Aptide1EDB (designed binder)
peptide: HCSSAVGSWTWENGKWTWKGIIRLEQ
notes: Synthetic 26-mer, all L-amino acids; also called Aptide1EDB (L-form)
